Test results as given in PubChem BioAssay (NCI).
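Cultured in 96-well plates, cells were exposed to test compound for 48 hours across five concentrations. TGI: total growth inhibition.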

Columns and labels:
Assay in all cases: inhibition of tumour cell growth, NCI panel, 48 h
SF-268 CNS = tested on: SF-268 CNS
HT29 colon = tested on: HT29 colon
RXF 393 renal = tested on: RXF 393 renal
K-562 leukemia = tested on: K-562 leukemia
COLO 205 colon = tested on: COLO 205 colon
NCI/ADR-RES ovarian = tested on: NCI/ADR-RES ovarian
HL-60(TB) leukemia = tested on: HL-60(TB) leukemia
HCT-116 colon = tested on: HCT-116 colon
HOP-62 NSCLC = tested on: HOP-62 NSCLC
UO-31 renal = tested on: UO-31 renal
OVCAR-5 ovarian = tested on: OVCAR-5 ovarian
MALME-3M melanoma = tested on: MALME-3M melanoma
NCI-H23 lung = tested on: NCI-H23 lung
NCI-H226 lung = tested on: NCI-H226 lung
SN12C renal = tested on: SN12C renal
SK-MEL-2 melanoma = tested on: SK-MEL-2 melanoma
PC-3 prostate = tested on: PC-3 prostate
HOP-92 NSCLC = tested on: HOP-92 NSCLC
BT-549 breast = tested on: BT-549 breast
EKVX NSCLC = tested on: EKVX NSCLC
NCI-H460 lung = tested on: NCI-H460 lung
M14 melanoma = tested on: M14 melanoma
OVCAR-4 ovarian = tested on: OVCAR-4 ovarian
A498 renal = tested on: A498 renal
SF-539 CNS = tested on: SF-539 CNS
OVCAR-3 ovarian = tested on: OVCAR-3 ovarian
MCF7 breast = tested on: MCF7 breast
A549 NSCLC = tested on: A549 NSCLC
U251 CNS = tested on: U251 CNS
SK-OV-3 ovarian = tested on: SK-OV-3 ovarian
786-0 renal = tested on: 786-0 renal
MDA-N = tested on: MDA-N
HS 578T breast = tested on: HS 578T breast
SNB-19 CNS = tested on: SNB-19 CNS
SF-295 CNS = tested on: SF-295 CNS
T-47D breast = tested on: T-47D breast
MDA-MB-435 = tested on: MDA-MB-435
UACC-257 melanoma = tested on: UACC-257 melanoma
HCT-15 colon = tested on: HCT-15 colon
SK-MEL-28 melanoma = tested on: SK-MEL-28 melanoma
ACHN renal = tested on: ACHN renal
KM12 colon = tested on: KM12 colon
CAKI-1 renal = tested on: CAKI-1 renal
UACC-62 melanoma = tested on: UACC-62 melanoma
TK-10 renal = tested on: TK-10 renal
SK-MEL-5 melanoma = tested on: SK-MEL-5 melanoma
DU-145 prostate = tested on: DU-145 prostate
HCC-2998 colon = tested on: HCC-2998 colon
RPMI-8226 leukemia = tested on: RPMI-8226 leukemia
OVCAR-8 ovarian = tested on: OVCAR-8 ovarian
MDA-MB-231 breast = tested on: MDA-MB-231 breast
CCRF-CEM leukemia = tested on: CCRF-CEM leukemia
NCI-H522 lung = tested on: NCI-H522 lung
MOLT-4 leukemia = tested on: MOLT-4 leukemia
IGROV1 ovarian = tested on: IGROV1 ovarian
LOX IMVI melanoma = tested on: LOX IMVI melanoma
SNB-75 CNS = tested on: SNB-75 CNS
SW-620 colon = tested on: SW-620 colon

Compound `CC(=O)C(I(OS(=O)(=O)c1ccc(C)cc1)c1ccccc1)=P(c1ccccc1)(c1ccccc1)c1ccccc1` has a TGI (SF-268 CNS) of 80.4 µM, a TGI (HT29 colon) of 49.6 µM and a TGI (RXF 393 renal) of over 100 µM. It also gave a TGI (K-562 leukemia) of over 100 µM, a TGI (COLO 205 colon) of 31.4 µM and a TGI (NCI/ADR-RES ovarian) of over 100 µM. The TGI (HL-60(TB) leukemia) was 76.3 µM, the TGI (HCT-116 colon) was 50.2 µM and the TGI (HOP-62 NSCLC) was 59.6 µM. The TGI (UO-31 renal) was over 100 µM, the TGI (OVCAR-5 ovarian) was 60.2 µM and the TGI (MALME-3M melanoma) was 30 µM. The TGI (NCI-H23 lung) was 42.7 µM, the TGI (NCI-H226 lung) was 38.8 µM and the TGI (SN12C renal) was 69.2 µM. For the same compound, the TGI (SK-MEL-2 melanoma) was 36 µM, the TGI (PC-3 prostate) was over 100 µM and the TGI (HOP-92 NSCLC) was 54.7 µM. The TGI (BT-549 breast) was 46.3 µM, the TGI (EKVX NSCLC) was 70.8 µM and the TGI (NCI-H460 lung) was over 100 µM. For the same compound, the TGI (M14 melanoma) was 59.3 µM, the TGI (OVCAR-4 ovarian) was 37 µM and the TGI (A498 renal) was over 100 µM. For the same compound, the TGI (SF-539 CNS) was 39.1 µM, the TGI (OVCAR-3 ovarian) was 56.1 µM and the TGI (MCF7 breast) was over 100 µM. For the same compound, the TGI (A549 NSCLC) was 72.8 µM, the TGI (U251 CNS) was 98.5 µM and the TGI (SK-OV-3 ovarian) was over 100 µM. The TGI (786-0 renal) was over 100 µM, the TGI (MDA-N) was 33.2 µM and the TGI (HS 578T breast) was 68.8 µM. For the same compound, the TGI (SNB-19 CNS) was over 100 µM, the TGI (SF-295 CNS) was over 100 µM and the TGI (T-47D breast) was 85.3 µM. It also gave a TGI (MDA-MB-435) of 32.4 µM, a TGI (UACC-257 melanoma) of 59 µM and a TGI (HCT-15 colon) of over 100 µM. The TGI (SK-MEL-28 melanoma) was 36.4 µM, the TGI (ACHN renal) was over 100 µM and the TGI (KM12 colon) was 38.2 µM. The TGI (CAKI-1 renal) was over 100 µM, the TGI (UACC-62 melanoma) was 17 µM and the TGI (TK-10 renal) was over 100 µM. It also gave a TGI (SK-MEL-5 melanoma) of 63.3 µM, a TGI (DU-145 prostate) of 58.7 µM and a TGI (HCC-2998 colon) of 39 µM. For the same compound, the TGI (RPMI-8226 leukemia) was 61.1 µM, the TGI (OVCAR-8 ovarian) was over 100 µM and the TGI (MDA-MB-231 breast) was 69.3 µM. For the same compound, the TGI (CCRF-CEM leukemia) was 78.3 µM, the TGI (NCI-H522 lung) was 24.5 µM and the TGI (MOLT-4 leukemia) was over 100 µM. It also gave a TGI (IGROV1 ovarian) of 73.5 µM.
`N#CC(C#N)N=Cc1ccncc1` was tested, and the TGI (SF-268 CNS) was over 100 µM, the TGI (LOX IMVI melanoma) was over 100 µM and the TGI (HT29 colon) was over 100 µM. It also gave a TGI (RXF 393 renal) of over 100 µM, a TGI (K-562 leukemia) of over 100 µM and a TGI (COLO 205 colon) of over 100 µM. For the same compound, the TGI (NCI/ADR-RES ovarian) was over 100 µM, the TGI (HL-60(TB) leukemia) was over 100 µM and the TGI (HCT-116 colon) was over 100 µM. The TGI (HOP-62 NSCLC) was over 100 µM, the TGI (OVCAR-5 ovarian) was over 100 µM and the TGI (MALME-3M melanoma) was over 100 µM. For the same compound, the TGI (NCI-H23 lung) was over 100 µM, the TGI (NCI-H226 lung) was over 100 µM and the TGI (SN12C renal) was over 100 µM. The TGI (SK-MEL-2 melanoma) was over 100 µM, the TGI (PC-3 prostate) was over 100 µM and the TGI (HOP-92 NSCLC) was over 100 µM. The TGI (BT-549 breast) was over 100 µM, the TGI (EKVX NSCLC) was over 100 µM and the TGI (SNB-75 CNS) was over 100 µM. The TGI (M14 melanoma) was over 100 µM, the TGI (OVCAR-4 ovarian) was over 100 µM and the TGI (A498 renal) was over 100 µM. For the same compound, the TGI (SF-539 CNS) was over 100 µM, the TGI (OVCAR-3 ovarian) was over 100 µM and the TGI (MCF7 breast) was over 100 µM. For the same compound, the TGI (A549 NSCLC) was over 100 µM, the TGI (U251 CNS) was over 100 µM and the TGI (SK-OV-3 ovarian) was over 100 µM. For the same compound, the TGI (786-0 renal) was over 100 µM, the TGI (MDA-N) was over 100 µM and the TGI (SF-295 CNS) was over 100 µM. The TGI (T-47D breast) was over 100 µM, the TGI (MDA-MB-435) was over 100 µM and the TGI (UACC-257 melanoma) was over 100 µM. It also gave a TGI (HCT-15 colon) of over 100 µM, a TGI (SK-MEL-28 melanoma) of over 100 µM and a TGI (ACHN renal) of over 100 µM. For the same compound, the TGI (KM12 colon) was over 100 µM, the TGI (CAKI-1 renal) was over 100 µM and the TGI (UACC-62 melanoma) was over 100 µM. For the same compound, the TGI (TK-10 renal) was over 100 µM, the TGI (SK-MEL-5 melanoma) was over 100 µM and the TGI (DU-145 prostate) was over 100 µM. The TGI (HCC-2998 colon) was over 100 µM, the TGI (RPMI-8226 leukemia) was over 100 µM and the TGI (OVCAR-8 ovarian) was over 100 µM. The TGI (MDA-MB-231 breast) was over 100 µM, the TGI (CCRF-CEM leukemia) was over 100 µM and the TGI (SW-620 colon) was over 100 µM. It also gave a TGI (MOLT-4 leukemia) of over 100 µM and a TGI (IGROV1 ovarian) of over 100 µM.
